This passage reports IC50 results from patent publication US12275721B2, “Indazole carboxamides as kinase inhibitors” (BRISTOL-MYERS SQUIBB COMPANY, priority 2019, dated 2025).

Like-named read-outs stand apart in the source and are kept apart here.

Assay [1] addresses T1, His-GST-TVMV-hRIPK1(1-324) (Homo sapiens, UniProt Q13546).
T1 construct: 1 nM His-GST-TVMV-hRIPK1(1-324) in FRET Buffer; made in house; host or cells: Spodoptera frugiperda (Sf9) insect cells, baculovirus (Bac-to-Bac)
T1 sequence (Q13546 1-324): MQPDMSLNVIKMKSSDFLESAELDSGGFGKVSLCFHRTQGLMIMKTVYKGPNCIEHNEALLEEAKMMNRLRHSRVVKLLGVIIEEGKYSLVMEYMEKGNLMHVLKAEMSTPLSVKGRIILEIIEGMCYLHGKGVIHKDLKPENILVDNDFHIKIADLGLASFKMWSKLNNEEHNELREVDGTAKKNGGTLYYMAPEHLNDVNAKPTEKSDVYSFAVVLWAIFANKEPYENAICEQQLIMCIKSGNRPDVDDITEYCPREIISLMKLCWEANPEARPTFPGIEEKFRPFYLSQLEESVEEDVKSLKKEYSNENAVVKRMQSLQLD
Kind of assay: RIPK1 HTRF Binding Assay. The conditions noted are these: HTRF probe displacement, 1 h at rt. The protocol:
A solution was prepared containing 0.2 nM Anti GST-Tb (Cisbio, 61GSTTLB), 90.6 nM probe and 1 nM His-GST-TVMV-hRIPK1(1-324) in FRET Buffer (20 mM HEPES, 10 mM MgCl2, 0.015% Brij-35, 4 mM DTT, 0.05 mg/mL BSA). Using Formulatrix Tempest, the detection antibody/enzyme/probe solution ([…]) was dispensed into wells of a 1536 plate (Black Low Binding Polystyrene 1536 Plate (Corning, 3724)) containing 10 nL of compounds of interest at appropriate concentration in DMSO. The plate was incubated at rt for 1 h. FRET was measured using the EnVision plate reader (Excitation: 340 nm, Emission: 520 nm/[…]). Total signal (0% inhibition) was calculated from wells containing 10 nL DMSO only.
Cloning and Baculovirus Expression of RIPK1 Construct
The coding region of human RIPK1(1-324) flanked by NdeI site at 5′ end and stop codon TGA and XhoI site at 3′ end was codon optimized and gene synthesized at GenScript USA Inc. (Piscataway, NJ) and subcloned into a modified pFastBac1 vector (Invitrogen, Carlsbad, CA) with N-terminal His-GST-TVMV tag, to generate His-GST TVMV-hRIPK1(1-324)-pFB. The fidelity of the synthetic fragment was confirmed by sequencing. Baculovirus was generated for the construct using the Bac-to-Bac baculovirus expression system (Invitrogen) according to the manufacturer's protocol. Briefly, recombinant bacmid was isolated from transformed DH10Bac E. coli competent cells 20 (Invitrogen) and used to transfect Spodoptera frugiperda (Sf9) insect cells (Invitrogen). Baculovirus was harvested 72 hours post transfection and a virus stock was prepared by infecting fresh Sf9 cells at a 1/1000 (v/v) ratio for 66 hours. For large scale protein production, Sf9 cells (Expression System, Davis, CA) grown in ESF921 insect medium (Expression System) at 2×10^6 cells/ml were infected with virus stock at a 1/100 (v/v) ratio for 66 hours. The production was carried out either at a 10 L scale in a 22 L cellbag (GE Healthcare Bioscience, Pittsburgh, PA) or at a 20 L scale in a 50 L cellbag using WAVE-Bioreactor System 20/50 (GE Healthcare Bioscience). The infected cells were harvested by centrifugation at 2000 rpm for 20 min at 4° C. in a SORVALL® RC12BP centrifuge. The cell pellets was stored at −70° C. before protein was purified.
Purification of His-GST-TVMV-hRIPK1(1-324)
RIPK1 containing cell paste was resuspended in 50 mM Tris pH 7.5, 150 mM NaCl, 10 mM imidazole, 5% glycerol, 5 mM MgSO4, 1 mM TCEP, 25 U/ml Benzonase, and Complete Protease Inhibitor tablets (1/50 ml, Roche Diagnostics, Indianapolis, IN). The cells were lysed by nitrogen cavitation using an unstirred pressure vessel @ 525 PSI (Parr Instrument Company, Moline, IL). The suspension was clarified by centrifugation at 136,000×g for 40 min, at 4° C. The lysate was decanted from the pellet and passed through a 5 ml NiNTA Superflow cartridge (Qiagen, Valencia, CA) using an AKTA Pure (GE Healthcare). Column was eluted with 10 CV linear gradient into 50 mM Tris 7.5, 150 mM NaCl, 500 mM imidazole, 5% glycerol, 1 mM TCEP. Peak fractions were pooled and loaded directly onto 5 ml GSTrap 4B column (GE Healthcare). Column was washed with 50 mM Tris 7.0, 150 mM NaCl, […], 1 mM DTT and eluted in 10 CV linear gradient into 50 mM Tris 8.0, 150 mM NaCl, 20 mM reduced glutathione, 50% glycerol, 1 mM DTT. Fractions identified by SDS-PAGE as containing RIPK1 were pooled and concentrated using 30 kDa MWCO spin concentrators (Amicon Ultra-15, Millipore, Billerica, MA) and loaded onto a HiLoad 26/600 Superdex 200 column (GE Healthcare) equilibrated in 25 mM Tris 7.5, 150 mM NaCl, 2 mM TCEP, […]. The RTPK1 protein eluted as a dimer off the SEC column. The yield was ˜8 mg/L with a purity […] as determined by Coomassie stain SDS-PAGE gel analysis. […] Protein was aliquoted and stored at −80° C. Using these assays, the IC50 values of the following compounds were determined.
Background: In TR-FRET formats the signal depends on donor and acceptor labels being close together.

Assay [2] relates to MLKL phosphorylation in HT29-L23 human colorectal adenocarcinoma cells. Kind of assay: MLKL Phosphorylation High-Content Assay. It is filed as cell-based. The following applies: necroptosis induced with TNFα, SMAC mimetic and Z-VAD, 6 h, read-out: pMLKL (IC50). The protocol:
MLKL Phosphorylation High-Content Assay
HT29-L23 human colorectal adenocarcinoma cells were maintained in RPMI 1640 medium containing 10% heat-inactivated FBS, 1% Penicillin-Streptomycin and 10 mM HEPES. Cells were seeded at 2,000 cells/well in 384 well tissue culture-treated microplates (Greiner #781090-3B) and incubated at 37° C. (5% CO2/95% O2) for 2 d. On the day of the assay, the cells were treated with test compounds at final concentrations of 6.25 to 0.106 μM for 30 min at 37° C. (5% CO2/95% O2). Necroptopsis was induced using a mixture of human TNFα (35 ng/mL) (Peprotech #300-01A), SMAC mimetic (from US 2015/0322111 A1) (700 nM) and Z-VAD (140 nM) (BD pharmingen #51-6936). Following 6 h incubation at 37° C. (5% CO2/95% O2), the cells were fixed with 4% formaldehyde (ACROS 11969-0010) for 15 min at rt, then permeabilized with phosphate buffered saline (PBS) containing 0.2% Triton-X-100 for 10 min. MLKL phosphorylation was detected using anti-MLKL (phospho S358) antibody (Abcam #ab187091) (1:1000 dilution in Blocking Buffer [PBS supplemented with 0.1% BSA]) with ON incubation at 4° C. After washing three times in PBS, goat anti-rabbit Alexa-488 (1:1000 dilution) (Life Technologies, A1 1008) and Hoechst 33342 (Life Technologies, H3570) (1:2000 dilution) in Blocking Buffer were added for 1 h at rt. Following another three cycles of washes in PBS, the microplates were sealed, and cellular images were acquired in the Cellomics ArrayScan VTI high-content imager equipped with an X1 camera. Fluorescent images were taken using a 10× objective and the 386-23 BGRFRN_BGRFRN and 485-20 BGRFRN_BGRFRN filter sets, for nuclei and MLKL phosphorylation, respectively. The image sets were analyzed using the Compartmental Analysis Bioapplication software (Cellomics). The level of MLKL phosphorylation was quantified as MEAN_CircRingAvglntenRatio. The maximal inhibitory response was defined by the activity induced by Necls (CAS #: 852391-15-2, 6.25 μm). The IC50 value was defined as the concentration of compound that produces 50% of the maximal inhibition. The data were fitted using the 4-parameter logistic equation to calculate the IC50 and Ymax values.

As usually defined, the IC50 is the concentration needed to halve the response being measured. As to `CNC(=O)c1n[nH]c2cc(-c3nc(C)c(C(=O)NCC[C@H](O)c4ccc(Cl)cc4)n3C)ccc12` [Example 29, (S)-6-(5-((3-(4-chlorophenyl)-3-hydroxypropyl)carbamoyl)-1,4-dimethyl-1H-imidazol-2-yl)-N-methyl-1H-indazole-3-carboxamide], the figures for the half-maximal inhibitory concentration (IC50) in assay [1] and in assay [2] (Homo sapiens) were 1.9 µM and 3.3 µM, respectively.
Regarding `CNC(=O)c1n[nH]c2cc(-c3nc(C)c(C(=O)NCc4cc(OC(F)(F)F)ccc4F)s3)ccc12` [Example 14, N-(2-fluoro-5-(trifluoromethoxy)benzyl)-4-methyl-2-(3-(methylcarbamoyl)-1H-indazol-6-yl)thiazole-5-carboxamide], the values for the IC50 in assay [1] and in assay [2] (Homo sapiens) were 0.007 µM and 0.008 µM, respectively.
Take `CNC(=O)c1n[nH]c2cc(-c3nc(C)c(C(=O)NCC[C@@H](O)c4ccc(Cl)cc4)n3C)ccc12` [Example 28, (R)-6-(5-((3-(4-chlorophenyl)-3-hydroxypropyl)carbamoyl)-1,4-dimethyl-1H-imidazol-2-yl)-N-methyl-1H-indazole-3-carboxamide]: the concentration for half-maximal inhibition (IC50) in assay [1] came to 0.46 µM; in assay [2] (Homo sapiens), 2.6 µM.
Taken in the same sequence, the figures for `CNC(=O)c1n[nH]c2cc(-c3nc(C)c(C(=O)NCC[C@@H](O)c4ccc(Cl)cc4)s3)ccc12` [Example 16, (R)-N-(3-(4-chlorophenyl)-3-hydroxypropyl)-4-methyl-2-(3-(methylcarbamoyl)-1H-indazol-6-yl)thiazole-5-carboxamide] were 0.15 µM and 0.21 µM.
The matching figures for `CNC(=O)c1n[nH]c2cc(-c3nc(C(=O)NCc4cc(OC(F)(F)F)ccc4F)cs3)ccc12` [Example 20, N-(2-fluoro-5-(trifluoromethoxy)benzyl)-2-(3-(methylcarbamoyl)-1H-indazol-6-yl)thiazole-4-carboxamide]: 0.4 µM and 0.81 µM.
Taken in the same sequence, the figures for `CNC(=O)c1n[nH]c2cc(-c3nc(C)c(C(=O)NCc4cc(C(F)(F)F)ccc4F)n3C)ccc12` [Example 30, 6-(5-((2-fluoro-5-(trifluoromethyl)benzyl)carbamoyl)-1,4-dimethyl-1H-imidazol-2-yl)-N-methyl-1H-indazole-3-carboxamide] were 0.1 µM and 0.15 µM.
On to `CNC(=O)c1n[nH]c2cc(-c3nc(C)c(C(=O)NCc4cc(C(F)(F)F)ccc4F)s3)ccc12` [Example 18, N-(2-fluoro-5-(trifluoromethyl)benzyl)-4-methyl-2-(3-(methylcarbamoyl)-1H-indazol-6-yl)thiazole-5-carboxamide], for which the IC50 was found to be 0.015 µM in assay [1] and 0.009 µM in assay [2] (Homo sapiens).
Taken in the same sequence, the figures for `CNC(=O)c1n[nH]c2cc(-c3cc(C)c(C(=O)NCC[C@@H](O)c4ccc(Cl)cc4)s3)ccc12` [Example 12, (R)-6-(5-((3-(4-chlorophenyl)-3-hydroxypropyl)carbamoyl)-4-methylthiophen-2-yl)-N-methyl-1H-indazole-3-carboxamide] were 0.0038 µM and 0.011 µM.
Taken in the same sequence, the figures for `CNC(=O)c1n[nH]c2cc(-c3nc(C)c(C(=O)NCC[C@H](O)c4ccc(Cl)cc4)s3)ccc12` [Example 17, (S)-N-(3-(4-chlorophenyl)-3-hydroxypropyl)-4-methyl-2-(3-(methylcarbamoyl)-1H-indazol-6-yl)thiazole-5-carboxamide] were 0.18 µM and 0.34 µM.
The matching figures for `CNC(=O)c1n[nH]c2cc(-c3cc(C)c(C(=O)NCCC(C)c4ccccc4)s3)ccc12` (centres unmarked) [Example 11, N-methyl-6-(4-methyl-5-((3-phenylbutyl)carbamoyl)thiophen-2-yl)-1H-indazole-3-carboxamide]: 0.0018 µM and 0.002 µM.
Regarding `CNC(=O)c1n[nH]c2cc(-c3nc(C)c(C(=O)NCc4cc(OC(F)(F)F)ccc4F)n3C)ccc12` [Example 26, 6-(5-((2-fluoro-5-(trifluoromethoxy)benzyl)carbamoyl)-1,4-dimethyl-1H-imidazol-2-yl)-N-methyl-1H-indazole-3-carboxamide], the values for the 50% inhibitory concentration (IC50) in assay [1] and in assay [2] (Homo sapiens) were 0.03 µM and 0.049 µM, respectively.
With `CNC(=O)c1n[nH]c2cc(-c3csc(C(=O)NCCC(C)c4ccccc4)c3)ccc12` (centres unmarked) [Example 2, N-methyl-6-(5-((3-phenylbutyl)carbamoyl)thiophen-3-yl)-1H-indazole-3-carboxamide], the IC50 stood at 0.006 µM in assay [1] and 0.0082 µM in assay [2] (Homo sapiens).
For the compound “(S)-6-(5-((3-(4-chlorophenyl)-3-hydroxypropyl)carbamoyl)-4-methylthiophen-2-yl)-N-methyl-1H-indazole-3-carboxamide [Example 13]”, the half-maximal inhibitory concentration (IC50) was determined as 0.01 µM in assay [1] and 0.023 µM in assay [2].
